From paper PMC7368294 (Proceedings of the National Academy of Sciences of the …, 2020)
Where two headings read alike, the source gives them in different places.

Molecular target: T1, Btα1/Btα8/Btβ1 nAChR (Bombus terrestris, UniProt A0A9B0BGM1+A0A9B0F4H3+A0A9B2JDZ7)
T1 sequence (A0A9B0F4H3 44-615): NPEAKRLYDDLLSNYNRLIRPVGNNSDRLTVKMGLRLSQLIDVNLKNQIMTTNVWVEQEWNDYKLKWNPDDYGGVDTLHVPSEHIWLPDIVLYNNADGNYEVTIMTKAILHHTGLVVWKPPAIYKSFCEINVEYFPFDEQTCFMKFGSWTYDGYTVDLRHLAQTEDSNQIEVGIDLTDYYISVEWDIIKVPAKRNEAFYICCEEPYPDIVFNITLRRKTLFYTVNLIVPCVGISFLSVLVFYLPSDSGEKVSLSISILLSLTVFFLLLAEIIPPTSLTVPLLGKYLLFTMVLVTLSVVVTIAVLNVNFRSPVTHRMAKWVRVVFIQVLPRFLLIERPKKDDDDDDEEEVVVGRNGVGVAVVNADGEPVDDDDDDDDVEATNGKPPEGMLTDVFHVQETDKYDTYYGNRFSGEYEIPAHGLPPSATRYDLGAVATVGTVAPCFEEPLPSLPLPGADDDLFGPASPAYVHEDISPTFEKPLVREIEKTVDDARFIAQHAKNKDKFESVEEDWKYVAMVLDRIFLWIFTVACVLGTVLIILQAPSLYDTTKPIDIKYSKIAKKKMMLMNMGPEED
T1 sequence (A0A9B2JDZ7 22-535): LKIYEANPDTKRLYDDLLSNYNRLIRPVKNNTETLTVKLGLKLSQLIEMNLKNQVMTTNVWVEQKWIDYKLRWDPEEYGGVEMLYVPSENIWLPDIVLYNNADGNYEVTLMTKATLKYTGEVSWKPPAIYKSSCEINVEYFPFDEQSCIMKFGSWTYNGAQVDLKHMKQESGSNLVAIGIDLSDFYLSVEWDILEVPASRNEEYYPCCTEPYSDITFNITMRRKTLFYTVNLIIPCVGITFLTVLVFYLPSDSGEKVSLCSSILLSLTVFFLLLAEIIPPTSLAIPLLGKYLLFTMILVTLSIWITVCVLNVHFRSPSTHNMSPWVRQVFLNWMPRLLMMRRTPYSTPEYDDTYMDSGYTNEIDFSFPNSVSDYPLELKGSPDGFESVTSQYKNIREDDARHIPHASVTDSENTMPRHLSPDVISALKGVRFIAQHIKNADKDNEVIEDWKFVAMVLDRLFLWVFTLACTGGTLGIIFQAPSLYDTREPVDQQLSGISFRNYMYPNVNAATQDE
T1 sequence (A0A9B0BGM1 19-519): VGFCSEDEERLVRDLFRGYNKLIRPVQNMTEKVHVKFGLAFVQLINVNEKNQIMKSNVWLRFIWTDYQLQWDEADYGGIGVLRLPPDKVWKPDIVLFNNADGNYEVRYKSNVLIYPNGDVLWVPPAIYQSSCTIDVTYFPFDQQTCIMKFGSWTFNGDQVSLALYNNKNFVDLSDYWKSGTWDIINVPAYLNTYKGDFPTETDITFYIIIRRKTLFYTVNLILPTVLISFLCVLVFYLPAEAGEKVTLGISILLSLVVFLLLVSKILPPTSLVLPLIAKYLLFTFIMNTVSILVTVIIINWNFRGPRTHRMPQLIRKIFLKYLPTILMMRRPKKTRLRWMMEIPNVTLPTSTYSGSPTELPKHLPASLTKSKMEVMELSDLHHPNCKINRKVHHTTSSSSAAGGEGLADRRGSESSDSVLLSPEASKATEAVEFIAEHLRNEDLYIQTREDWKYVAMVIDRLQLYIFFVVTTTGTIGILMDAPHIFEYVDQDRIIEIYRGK
Assay: cell-based
Design: species or system Xenopus laevis oocytes
Settings: Oocyte

N#C/N=C1\SCCN1Cc1ccc(Cl)nc1 [thiacloprid]
Emax (read-out: Thiacloprid / Imax): 9.4 ± 0.8%

CN/C(=N\[N+](=O)[O-])NCc1cnc(Cl)s1 [clothianidin]
Emax (read-out: Clothianidin / Imax): 75.9 ± 1.8%

O=[N+]([O-])NC1=NCCN1Cc1ccc(Cl)nc1 [imidacloprid]
Emax (read-out: Imidacloprid / Imax): 10.7 ± 1%
